# Assay results as given in ChEMBL document CHEMBL3407488, “Synthesis and L-type calcium channel blocking activity of new chiral oxadiazolothiazinones” (Eur J Med Chem, 2015).
# Legend:
# Cav1.2b [1] = assay: Antagonist activity at Cav1.2b in K+-depolarized guinea pig ileum longitudinal smooth muscle assessed as inhibition of calcium-induced contraction at 5 x 10^-6 M relative to control; format: tissue-based, Cavia porcellus; settings: read-out: Activity
# Cavia porcellus [2] = organism: Cavia porcellus; assay: Antagonist activity at Cav1.2a in K+-depolarized guinea pig aortic strips assessed as inhibition of calcium-induced contraction at 5 x 10^-5 M relative to control; format: tissue-based; parameters: scale not given: the % may be the effect or the level left; settings: Aorta
# Right cardiac atrium [3] = assay: Negative chronotropic activity in guinea pig […] atrium assessed as decrease in atrial rate on spontaneous beating at 5 x 10^-7 M relative to control; format: functional, Cavia porcellus; parameters: scale not given: the % may be the effect or the level left
# [4] = Antagonist activity at Cav1.2b in K+-depolarized guinea pig ileum longitudinal smooth muscle assessed as inhibition of calcium-induced contraction; format: tissue-based; settings: Cavia porcellus
# Left cardiac atrium [5] = assay: Negative ionotropic activity in guinea pig left atrium assessed as decrease in developed tension driven at 1 Hz; format: functional, tissue-based; settings: Cavia porcellus
# Left cardiac atrium [6] = assay: Negative ionotropic activity in guinea pig left atrium assessed as decrease in developed tension driven at 1 Hz at 5 x 10^-7 M relative to control; format: functional, Cavia porcellus; parameters: scale not given: the % may be the effect or the level left
# Left cardiac atrium [7] = assay: Negative ionotropic activity in guinea pig left atrium assessed as decrease in developed tension driven at 1 Hz at 10^-6 M relative to control; format: functional, Cavia porcellus; parameters: scale not given: the % may be the effect or the level left
# Right cardiac atrium [8] = assay: Negative chronotropic activity in guinea pig […] atrium assessed as decrease in atrial rate on spontaneous beating at 5 x 10^-5 M relative to control; format: functional, Cavia porcellus; parameters: scale not given: the % may be the effect or the level left
# Cavia porcellus [9] = organism: Cavia porcellus; assay: Antagonist activity at Cav1.2a in K+-depolarized guinea pig aortic strips assessed as inhibition of calcium-induced contraction at 10^-4 M relative to control; format: tissue-based; parameters: scale not given: the % may be the effect or the level left; settings: Aorta
# Right cardiac atrium [10] = assay: Negative chronotropic activity in guinea pig […] atrium assessed as decrease in atrial rate on spontaneous beating at 10^-5 M relative to control; format: functional, Cavia porcellus; parameters: scale not given: the % may be the effect or the level left
# Cav1.2b [11] = assay: Antagonist activity at Cav1.2b in K+-depolarized guinea pig ileum longitudinal smooth muscle assessed as inhibition of calcium-induced contraction at 5 x 10^-5 M relative to control; format: tissue-based, Cavia porcellus; settings: read-out: Activity
# Right cardiac atrium [12] = assay: Negative chronotropic activity in guinea pig […] atrium assessed as decrease in atrial rate on spontaneous beating at 5 x 10^-6 M relative to control; format: functional, Cavia porcellus; parameters: scale not given: the % may be the effect or the level left
# Left cardiac atrium [13] = assay: Negative ionotropic activity in guinea pig left atrium assessed as decrease in developed tension driven at 1 Hz at 5 x 10^-6 M relative to control; format: functional, Cavia porcellus; parameters: scale not given: the % may be the effect or the level left
# Cav1.2b [14] = assay: Antagonist activity at Cav1.2b in K+-depolarized guinea pig ileum longitudinal smooth muscle assessed as inhibition of calcium-induced contraction at 10^-4 M relative to control; format: tissue-based, Cavia porcellus; settings: read-out: Activity
# Left cardiac atrium [15] = assay: Ratio of diltiazem EC50 to compound EC50 for negative ionotropic activity in guinea pig left atrium assessed as decrease in developed tension driven at 1 Hz; format: functional, Cavia porcellus
# Right cardiac atrium [16] = assay: Negative chronotropic activity in guinea pig […] atrium assessed as decrease in atrial rate on spontaneous beating at 10^-4 M relative to control; format: functional, Cavia porcellus; parameters: scale not given: the % may be the effect or the level left
# Right cardiac atrium [17] = assay: Negative chronotropic activity in guinea pig […] atrium assessed as decrease in atrial rate on spontaneous beating; format: functional; settings: Cavia porcellus
# Right cardiac atrium [18] = assay: Negative chronotropic activity in guinea pig […] atrium assessed as decrease in atrial rate on spontaneous beating at 10^-6 M relative to control; format: functional, Cavia porcellus; parameters: scale not given: the % may be the effect or the level left
# [19] = Selectivity ratio of IC50 for Cav1.2a in K+-depolarized guinea pig aortic strips to IC50 for Cav1.2b in K+-depolarized guinea pig ileum longitudinal smooth muscle; parameters: species or system Cavia porcellus, Muscle tissue
# Left cardiac atrium [20] = assay: Negative ionotropic activity in guinea pig left atrium assessed as decrease in developed tension driven at 1 Hz at 10^-5 M relative to control; format: functional, Cavia porcellus; parameters: scale not given: the % may be the effect or the level left
# Cav1.2b [21] = assay: Antagonist activity at Cav1.2b in K+-depolarized guinea pig ileum longitudinal smooth muscle assessed as inhibition of calcium-induced contraction at 10^-6 M relative to control; format: tissue-based, Cavia porcellus; settings: read-out: Activity
# [22] = Antagonist activity at Cav1.2a in K+-depolarized guinea pig aortic strips assessed as inhibition of calcium-induced contraction; format: tissue-based; settings: Cavia porcellus, Aorta
# [23] = Selectivity ratio of IC50 for Cav1.2b in K+-depolarized guinea pig ileum longitudinal smooth muscle to IC50 for Cav1.2a in K+-depolarized guinea pig aortic strips; parameters: species or system Cavia porcellus, Muscle tissue
# Cavia porcellus [24] = organism: Cavia porcellus; assay: Antagonist activity at Cav1.2a in K+-depolarized guinea pig aortic strips assessed as inhibition of calcium-induced contraction at 5 x 10^-8 M relative to control; format: tissue-based; parameters: scale not given: the % may be the effect or the level left; settings: Aorta
# Right cardiac atrium [25] = assay: Negative chronotropic activity in guinea pig […] atrium assessed as decrease in atrial rate on spontaneous beating at 5 x 10^-8 M relative to control; format: functional, Cavia porcellus; parameters: scale not given: the % may be the effect or the level left
# [26] = Selectivity ratio of IC50 for Cav1.2b in K+-depolarized guinea pig ileum longitudinal smooth muscle to EC50 for negative ionotropic activity in guinea pig left atrium; parameters: species or system Cavia porcellus, Muscle tissue
EC50 (Left cardiac atrium [5]) [µM],SMILES,IC50 [4] [µM],Activity (Left cardiac atrium [7]) [%],Activity (Cavia porcellus [9]) [%],inhibition at 100 µM (Cav1.2b [14]) [%],Activity (Right cardiac atrium [16]) [%],further results
0.0093,CCO[C@]1(c2ccc(Br)cc2)Sc2ccccc2-n2c1noc2=O,0.02,–,–,–,–,inhibition at 5 µM (Cav1.2b [1]): 78%; Activity (Cavia porcellus [2]): 8%; Activity (Right cardiac atrium [3]): 20%; Activity (Left cardiac atrium [6]): 64%
–,CCO[C@@]1(c2ccc(Br)cc2)SC=C(C)n2c1noc2=O,–,58,7,–,–,Activity (Right cardiac atrium [8]): 15%
0.07,CCO[C@]1(c2ccc(Br)cc2)SC=C(C)n2c1noc2=O,–,77,11,–,–,Activity (Right cardiac atrium [10]): 16%
–,CCO[C@@]1(c2ccc(Br)cc2)Sc2ccccc2-n2c1noc2=O,5.19,–,–,–,–,inhibition at 50 µM (Cav1.2b [11]): 60%; Activity (Cavia porcellus [2]): 2%; Activity (Right cardiac atrium [12]): 10%; Activity (Left cardiac atrium [13]): 25%
0.04,CCOC1(c2ccc(Br)cc2)SC=C(C)n2c1noc2=O (racemic),–,78,19,3,5,Ratio EC50 (Left cardiac atrium [15]): 20
0.79,COc1ccc([C@@H]2Sc3ccccc3N(CCN(C)C)C(=O)[C@@H]2OC(C)=O)cc1 [DILTIAZEM],0.11,–,88,–,–,EC30 (Right cardiac atrium [17]): 0.07 µM; Activity (Right cardiac atrium [18]): 94%; Ratio IC50 [19]: 24; Activity (Left cardiac atrium [20]): 78%; inhibition at 1 µM (Cav1.2b [21]): 98%; IC50 [22]: 2.6 µM
0.026,CC1=CS[C@](OCC(F)(F)F)(c2ccc(Br)cc2)c2noc(=O)n21,12.2,–,9,98,–,Activity (Right cardiac atrium [8]): 40%; Activity (Left cardiac atrium [13]): 82%
0.013,CCOC1(c2ccc(Br)cc2)Sc2ccccc2-n2c1noc2=O (racemic),8.32,81,4,87,7,Ratio IC50 [23]: 640; IC50 [22]: 0.013 µM
0.011,O=c1onc2n1-c1ccccc1S[C@@]2(OCC(F)(F)F)c1ccc(Br)cc1,–,–,–,47,–,Activity (Cavia porcellus [24]): 28%; Activity (Right cardiac atrium [25]): 25%; Activity (Left cardiac atrium [6]): 52%
0.006,O=c1onc2n1-c1ccccc1SC2(OCC(F)(F)F)c1ccc(Br)cc1 (racemic),11.8,75,21,54,7,Selectivity ratio [26]: 1965
0.0098,O=c1onc2n1-c1ccccc1S[C@]2(OCC(F)(F)F)c1ccc(Br)cc1,4.58,77,1,54,–,Activity (Right cardiac atrium [10]): 24%
0.034,CC1=CS[C@@](OCC(F)(F)F)(c2ccc(Br)cc2)c2noc(=O)n21,19,82,12,85,16,–
0.022,CC1=CSC(OCC(F)(F)F)(c2ccc(Br)cc2)c2noc(=O)n21 (racemic),25.9,–,28,73,–,Activity (Right cardiac atrium [10]): 4%; Activity (Left cardiac atrium [13]): 76%; Ratio EC50 (Left cardiac atrium [15]): 36
